Laboratory results taken from patent publication US20170340588A1, “MODULATION OF REGULATORY T CELLS VIA G-COUPLED PROTEIN RECEPTOR 43” (President and Fellows of Harvard College, priority 2013, published 2017).

Tests used:
[1] = mouse, in vivo
Description: At the conclusion of the experiment mice were removed from isolators and processed immediately.
Cecal or small intestinal contents were collected immediately after animals were sacrificed and flash frozen in N2(1). Samples were mashed in 500 μl HPLC grade water and centrifuged at >14,000 x g, the resulting supernatant was then passed through a 0.22 μm syringe filter to remove bacterial cells and debris. Samples we then acidified with 1/10 volume of 0.01M H2SO4, heated and passed through a condenser to isolate volatile compounds within a sample. SCFA analyses were performed using an Agilent 1200 series HPLC and a Poroshell 120 SB C18 column (2.7 μm, 3.0×100mm) with guard column (Agilent Technologies). Sulfuric acid (0.01M) was used as the mobile phase. SCFA concentrations were weight corrected.

[2] = test system: colonic lamina propria Treg; experiment: In vitro T cell stimulation of colonic Treg (RTqPCR, ELISA, proliferation); format: cell-based, mice
Description: Treg were isolated from the colon, small intestine, mesenteric lymph node or spleen of C57BL/6 Foxp3^YFP-Cre mice and FACS-sorted based on expression of YFP. RNA samples were prepared using the RNeasy Mini Kit (Qiagen) and cDNA was synthesized using the Bio-Rad iScript cDNA Synthesis Kit. Real-time (RT)-qPCR was performed using the KAPA SYBR FAST Universal qPCR Kit (KAPA Biosystems) and a Stratagene MX3005P (Agilent Technologies). The following primer sequences were used:
Colonic lamina propria Treg were isolated from C57BL/6 Foxp3^YFP-Cre mice as described above and FACS-sorted based on expression of YFP. Isolated Treg were cultured in RPMI 1640 medium supplemented with 10% FBS (Gibco), 4 mM L-glutamine, 80 U/ml penicillin, 80 μg/ml streptomycin, 1 mM sodium pyruvate, 10 mM HEPES and 1× nonessential amino acids (all obtained from Cellgro). Treg were stimulated with 1 μg/ml anti-CD3 antibody and with or without 0.1 mM sodium propionate for 24 h at 37° C. The division index is calculated by dividing the total number of cell divisions by the number of cells added at the start of the culture and represents the average number of divisions a cell from the original population has undergone and includes the undivided fraction in the calculation.
Cytokines were measured in culture supernatants using standard cytokines, antibodies and protocols. IL-10 was measured using the BD OptEIA ELISA Kit (BD Biosciences) and TGFβ1 levels were measured using the mouse TGF-beta 1 DuoSet (R&D Systems).

[3] = test system: T cell transfer colitis; experiment: T cell transfer model of colitis; format: in vivo, mice
From the text: At Day 0, Naive CD4+CD25^−CD45RB^hi splenic T cells were FACS-sorted from BALB/c mice and injected i.p. into 6-8 week old BALB/c RAG2^−/− immunodeficient recipients (5×10^5 cells/mouse). At day 10, BALB/c RAG2^−/− immunodeficient recipients received CD4^+ CD25^+ CD45RB^lo splenic Treg cells (75,000/mouse) isolated from BALB/c or C57BL/6 mice Ffar2^+/+ and Ffar2^−/− mice where indicated. Mice were monitored weekly for weight loss and morbidity for 6-9 weeks as per the protocol's experimental endpoint guidelines.
Colons were excised and cleaned with DPBS prior to fixation in 4% PFA and then processed by routine paraffin embedding, sectioning and H&E staining. Colitis scores were determined by J.N.G., who was blinded to the experimental parameters. Each of 4 histologic parameters were scored as absent (0), mild (1), moderate (2), or severe (3): mononuclear cell infiltraton, polymorphonuclear cell infiltration, epithelial hyperplasia, and epithelial injury. The scores for the parameters were summed to generate the cumulative histologic colitis score as previously described.

[4] = test system: colonic Treg (cTreg); experiment: SPF SCFA intervention; flow cytometry of lymphocytes; format: in vivo, mice
Description: To isolate LP lymphocytes, small and large intestines were collected and opened longitudinally and washed with PBS to remove fecal contents. To remove epithelial cells, mucus and fat tissue, intestines were incubated 2 times in EDTA (5 mM)/DTT (1 mM)/Dulbecco's PBS (calcium and magnesium-free) solution (5 ml/colon) for 25 min at 37° C. Intestines were then minced and collagenase-digested two times for 45 min at 37° C. in RPMI containing 1 mg/ml collagenase type VIII (SIGMA), 25 μg/ml DNase I (Roche), 50 μg/ml Dispase (StemCell Technologies) and 0.01M HEPES (StemCell Technologies). The crude cell suspension was loaded onto a 40%/90% Percoll (GE Healthcare) gradient and centrifuged at 720 x g for 25 min at room temperature with acceleration and brake turned off. LP lymphocytes were collected from the 40%/90% interface.
Intracellular staining of the transcription factors Foxp3, Helios and T-bet was performed using the Foxp3 Fix/Perm Buffer Set (Biolegend). For detection of intracellular cytokines, cells were first stimulated for 4 h with 50 ng/ml PMA and 1 μg/ml ionomycin in the presence of Brefeldin A (All obtained from Sigma), followed by staining for surface markers. Cells were then fixed and permeabilized using the Foxp3 Fix/Perm Buffer Set (Biolegend) and stained for intracellular cytokines. The following antibodies were used: PE-labeled anti-Foxp3 (FJK-16s, eBioscience), Pacific Blue-labeled anti-Helios (22F6), PE-, FITC- or APC-labeled anti-CD4 (RM4-5), PECy7-labeled anti-CD3 (145-2C11), PE- or APC-labeled anti-IL-10 (JES5-16E3), PerCP-Cy5.5-labeled anti-IL-17 (TC11-18H10.1), APC- or PE-Cy7-labeled anti-IFNγ (XMG1.2), Pacific Blue-labeled anti-TGFβ1 (TW7-16B4), FITC-, PerCP-Cy5.5 or Pacific Blue-labeled anti-CD45 (30-F11), PerCP-Cy5.5 anti-CD45RB (C363-16A), PE- or FITC-labeled anti-CD25 (PC61), Brilliant Violet 421-labeled anti-CD127 (A7R34), GPR43 rabbit polyclonal (Abcam Catalog *Ab118449, and anti-rabbit IgG DyLight649 (Poly4064). […] Flow cytometry was performed using LSRII and data were analyzed with FlowJo software (TreeStar, Inc.). […]

[5] = test system: colonic Treg (cTreg); experiment: Ex vivo RTqPCR of cTreg from in vivo treated mice
Description: Science 341: 1645 (2013). […] Treg were isolated from the colon, small intestine, mesenteric lymph node or spleen of C57BL/6 Foxp3^YFP-Cre mice and FACS-sorted based on expression of YFP. […] Real-time (RT)-qPCR was performed using the KAPA SYBR FAST Universal qPCR Kit (KAPA Biosystems) and a Stratagene MX3005P (Agilent Technologies).

[6] = Stability of SCFA mix in mouse water bottle over time; format: physicochemical
Description: Mice were treated for 21 days with either sodium acetate (150 mM), sodium propionate (150 mM), sodium butyrate (100 mM) or a SCFA mix (67.5 mM acetate, 40 mM Butyrate, 25.9 mM Propionate) in the drinking water. In in vivo drinking water treatment experiments, control mice received pH and sodium-matched water. At the conclusion of the experiment mice were removed from isolators and processed immediately.

[7] = in vivo treated GF and SPF mice

With `CCC(=O)O` [Propionate, propionic acid] the “SCFA levels, SPF SI” value [1] was 2.69 ± 0.24 µmol/g, the “SCFA levels, SPF SI + P” value [1] was 12.08 ± 3.69 µmol/g and the “SCFA levels, cecal contents, ASF” value [1] was 18.83 ± 2.72 µmol/g. The “SCFA levels, cecal contents, GF” value [1] was 1.46 ± 0.162 µmol/g, the “SCFA levels, cecal contents, GF + Mic” value [1] was 11.78 ± 6.38 µmol/g and the “SCFA levels, cecal contents, GF + P” value [1] was 14.93 ± 4.50 µmol/g. The “SCFA levels, cecal contents, SPF” value [1] was 21.90 ± 0.122 µmol/g, the “SCFA levels, cecal contents, SPF + P” value [1] was 43.33 ± 12.17 µmol/g and the “SCFA levels, cecal contents, SPF + Vanco” value [1] was 1.851 ± 1.41 µmol/g. The “Foxp3 and IL-10 expression and IL-10 protein levels” value ([2]; Ffar2+/+ cTreg, 0.1 mM, 24 hours) was “enhanced”, the cTreg proliferation ([2]; anti-CD3 and IL-2, 0.1 mM propionate) was “enhanced proliferation” and the “Foxp3 and IL-10 expression in cTreg” value ([2]; cTreg from GF mice stimulated 24 hours in vitro, 0.1 mM) was “significant increase”. The IL-10 production ([2]; cTreg from GF mice, in vitro 24 hours, 0.1 mM, ELISA) was “increased”, the “Foxp3 expression, IL-10 expression and IL-10 protein production” value ([2]; cTreg from SPF mice, 24 hours in vitro, 0.1 mM) was “increases” and the “effect on intestinal inflammation (colitis scores)” value ([3]; Ffar2+/+ or Ffar2-/- Treg transferred) was “dependent upon Ffar2 expression in Treg”. For the same compound, the “degrees of colonic crypt injury, inflammation, and hyperplasia” value ([3]; H&E, compared to control mice) was “reduced degrees”, the “frequency and number of colonic LP Foxp3+ Treg” value ([3]; T cell transfer colitis) was “increase” and the weight loss ([3]; naïve T cells and Treg, vs water alone (P<0.0001)) was “less severe”. For the same compound, the mean colitis score ([3]; naïve T cells and Treg, water alone 5.1±0.6) was 2.0±0.6, the “percentage and number of cTreg” value ([4]; Ffar2+/+ control mice) was “significantly enhanced” and the “percentage and number of cTreg” value ([4]; Ffar2-/- mice) was “no effect”. For the same compound, the “small intestinal Treg numbers” value ([4]; SPF mice, distal ileum lamina propria) was “does not affect”, the “Foxp3 and IL-10 expression in cTreg” value ([5]; cTreg from GF mice treated in vivo for three weeks) was “significant increase” and the “levels of chemokine receptor CCR9 or α4β7 integrin in cTreg” value [5, 7] was “not altered”. The “levels of the cTreg homing receptor GPR15” value [5, 7] was “increase”, the “SCFA mix in mouse water bottle over time, Input (Day 0)” value ([6]; Day 0) was 200 mM and the “SCFA mix in mouse water bottle over time, Day 1” value ([6]; Day 1, input 200 mM) was 200 mM. The “SCFA mix in mouse water bottle over time, Day 4” value ([6]; Day 4, input 200 mM) was 199.6 mM, the “SCFA mix in mouse water bottle over time, Day 7” value ([6]; Day 7, input 200 mM) was 201.24 mM and the “SCFA mix in mouse water bottle over time, Day 10” value ([6]; Day 10, input 200 mM) was 202.9 mM. The “SCFA mix in mouse water bottle over time, Day 14” value ([6]; Day 14, input 200 mM) was 203.2 mM and the “SCFA mix in mouse water bottle over time, Day 90” value ([6]; Day 90, input 200 mM) was 41.9 mM.
